The results in this text go back to US20260138976A1 (Hoffmann-La Roche Inc., priority 2022, published 2026).

Some results are limits rather than exact numbers.

The subject of test [1] is primary human T-cells. Kind of test: IL2 secretion measurements (24 h, CD3-stimulated T-cells, PBS counter screen). It counts as cell-based. The following applies: for Emax IL2 (% activation): CD3 condition, normalised to DMSO (neutral) and 20 μM reference compound A1 = 100%; for EC50: CD3-stimulated primary human T-cells, IL2 secretion, fitted sigmoidal curve, read-out: Tcell IL2 CD3 EC50. Summed up: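 Expanded primary human T-cells (100k/well) were plated on anti-CD3-coated or PBS-only plates with compound in a 5–6 point dose response (top 20 or 10 μM final, 3.333-fold, 0.2% DMSO). IL-2 in 24 h supernatants was quantified by ProQuantum immunoassay or ELISA. Values were normalized to DMSO and 20 μM reference compound A1 (100%), giving EC50 and Emax.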

Test [2] deals with primary human T-cells. Kind of test: Proliferation assay (5 days, CellTiter-Glo, CD3-stimulated T-cells). The following applies: for Emax proliferation (% activation): CD3 condition, normalised to DMSO (neutral) and 20 μM reference compound A1 = 100%; for EC50: Homo sapiens, T-cell, 120 h, CD3-stimulated primary human T-cells, 5 days, CellTiter-Glo, fitted sigmoidal curve, read-out: Tcell Proliferation CD3 EC50. It counts as cell-based. Summed up:
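Expanded primary human T-cells, 100 k cells/well, were stimulated with plate-coated CD3 antibody (donor-titrated) and given compound in a 5 or 6 pt dose response from 20 μM or 10 μM final top, 0.2% DMSO final. ATP was read by CellTiter-Glo after 5 days. EC50 and Emax were reported as % of 20 μM reference compound A1.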
(In general: In ATP-based viability assays light output follows the ATP content of the culture.)

Regarding `CC(C)(C#N)c1nnc(-c2ccc3c(c2)N(Cc2ccc(-n4nnc(C(F)(F)F)n4)cc2)C(=O)[C@@H](N)CS3(=O)=O)o1` [Example 120, 2-[5-[(3R)-3-amino-1,1,4-trioxo-5-[[4-[5-(trifluoromethyl)tetrazol-2-yl]phenyl]methyl]-2,3-dihydro-1λ^6,5-benzothiazepin-7-yl]-1,3,4-oxadiazol-2-yl]-2-methyl-propanenitrile], the “Emax IL2 (% activation)” value in the test on primary human T-cells [1] was 135 % activation. Besides, the EC50 with primary human T-cells [1] (Homo sapiens, T-cell) worked out at 1330 nM; with primary human T-cells [2], 1520 nM. Also, in the test on primary human T-cells [2], the “Emax proliferation (% activation)” value is 205 % activation.
The matching figures for `CC(C)(C#N)c1nnc(-c2ccc3c(c2)N(Cc2ccc(-c4nc(C(F)(F)F)co4)cc2)C(=O)[C@@H](N)CS3(=O)=O)o1` [Example 123, 2-[5-[(3R)-3-amino-1,1,4-trioxo-5-[[4-[4-(trifluoromethyl)oxazol-2-yl]phenyl]methyl]-2,3-dihydro-1λ^6,5-benzothiazepin-7-yl]-1,3,4-oxadiazol-2-yl]-2-methyl-propanenitrile]: 144 % activation, 1250 nM, 860 nM and 103 % activation.
For `COc1ccc(-c2ccc(CN3C(=O)[C@@H](N)CS(=O)(=O)c4ccc(-c5nnc(C(C)(C)C#N)o5)cc43)cc2)nc1` [Example 125], the “Emax IL2 (% activation)” value in the test with primary human T-cells [1] is reported as 97 % activation. Further, the EC50 in the test on primary human T-cells [1] (Homo sapiens, T-cell) was 4280 nM. In addition, in the test on primary human T-cells [2], the “Emax proliferation (% activation)” value amounted to 127 % activation and the EC50 stood at 2310 nM.
With `CC(C)(C#N)c1nnc(-c2ccc3c(c2)N(Cc2ccc(-c4cc(OC(F)(F)F)ccn4)cc2)C(=O)[C@@H](N)CS3(=O)=O)o1` [Example 126, 2-[5-[(3R)-3-amino-1,1,4-trioxo-5-[[4-[4-(trifluoromethoxy)-2-pyridyl]phenyl]methyl]-2,3-dihydro-1λ^6,5-benzothiazepin-7-yl]-1,3,4-oxadiazol-2-yl]-2-methyl-propanenitrile], in the test with primary human T-cells [1], the “Emax IL2 (% activation)” value worked out at 254 % activation. Also, the EC50 in the test on primary human T-cells [1] (Homo sapiens, T-cell) worked out at 2110 nM. For the same compound, in the test on primary human T-cells [2], the “Emax proliferation (% activation)” value came to 212 % activation and the EC50 stood at 2490 nM.
With `CC(C)(C#N)c1nnc(-c2ccc3c(c2)N(Cc2ccc(-c4ncc(C(F)(F)F)cn4)cc2)C(=O)[C@@H](N)CS3(=O)=O)o1` [Example 127, 2-[5-[(3R)-3-amino-1,1,4-trioxo-5-[[4-[5-(trifluoromethyl)pyrimidin-2-yl]phenyl]methyl]-2,3-dihydro-1λ^6,5-benzothiazepin-7-yl]-1,3,4-oxadiazol-2-yl]-2-methyl-propanenitrile], in the test with primary human T-cells [1], the “Emax IL2 (% activation)” value is 112 % activation. Further, the EC50 in the test on primary human T-cells [1] (Homo sapiens, T-cell) was found to be 4560 nM; with primary human T-cells [2], 1980 nM. The “Emax proliferation (% activation)” value with primary human T-cells [2] was 130 % activation.
As for `CC(C)(C#N)c1nnc(-c2ccc3c(c2)N(Cc2ccc(-c4ccc(OC(F)(F)C(F)(F)F)cn4)cc2)C(=O)[C@@H](N)CS3(=O)=O)o1` [Example 129, 2-[5-[(3R)-3-amino-1,1,4-trioxo-5-[[4-[5-(1,1,2,2,2-pentafluoroethoxy)-2-pyridyl]phenyl]methyl]-2,3-dihydro-1λ^6,5-benzothiazepin-7-yl]-1,3,4-oxadiazol-2-yl]-2-methyl-propanenitrile], the “Emax IL2 (% activation)” value in the test on primary human T-cells [1] turned out to be 187 % activation. Further, the EC50 in the test with primary human T-cells [1] (Homo sapiens, T-cell) is 552 nM. Also, in the test on primary human T-cells [2], the “Emax proliferation (% activation)” value came to 119 % activation and the EC50 turned out to be 22.8 nM.
For `N[C@H]1CS(=O)(=O)c2ccc(-c3nnc(C4(C(F)F)CNC4)o3)cc2N(Cc2ccc(-c3ccc(C(F)(F)F)cc3)cc2)C1=O` [Example 152], in that order: 19 % activation, above 10000 nM, 90 % activation and 1440 nM.
Consider `C[C@@](N)(c1nnc(-c2ccc3c(c2)N(Cc2ccc(-c4ccc(OC(F)(F)F)cn4)cc2)C(=O)[C@@H](N)CS3(=O)=O)o1)C(F)(F)F` [Example 153, (3R)-3-amino-7-[5-[(1R)-1-amino-2,2,2-trifluoro-1-methyl-ethyl]-1,3,4-oxadiazol-2-yl]-1,1-dioxo-5-[[4-[5-(trifluoromethoxy)-2-pyridyl]phenyl]methyl]-2,3-dihydro-1λ^6,5-benzothiazepin-4-one], for which, in the test on primary human T-cells [1], the “Emax IL2 (% activation)” value is reported as 193 % activation. The EC50 in the test on primary human T-cells [1] (Homo sapiens, T-cell) was determined as 245 nM; in the test on primary human T-cells [2], 130 nM. For the same compound, the “Emax proliferation (% activation)” value with primary human T-cells [2] worked out at 178 % activation.
For `C[C@@](N)(c1nnc(-c2ccc3c(c2)N(Cc2ccc(-c4ccc(C(F)(F)F)cn4)cc2)C(=O)[C@@H](N)CS3(=O)=O)o1)C(F)(F)F` [Example 154, (3R)-3-amino-7-[5-[(1R)-1-amino-2,2,2-trifluoro-1-methyl-ethyl]-1,3,4-oxadiazol-2-yl]-1,1-dioxo-5-[[4-[5-(trifluoromethyl)-2-pyridyl]phenyl]methyl]-2,3-dihydro-1λ^6,5-benzothiazepin-4-one], the “Emax IL2 (% activation)” value in the test with primary human T-cells [1] is 127 % activation. Moreover, in the test on primary human T-cells [1] (Homo sapiens, T-cell), the EC50 turned out to be 991 nM. In the test with primary human T-cells [2], the “Emax proliferation (% activation)” value was determined as 151 % activation and the EC50 is 984 nM.
Take `C[C@@](N)(c1nnc(-c2ccc3c(c2)N(Cc2ccc(-n4nnc(C(F)(F)F)n4)cc2)C(=O)[C@@H](N)CS3(=O)=O)o1)C(F)(F)F` [Example 156, (3R)-3-amino-7-[5-[(1R)-1-amino-2,2,2-trifluoro-1-methyl-ethyl]-1,3,4-oxadiazol-2-yl]-1,1-dioxo-5-[[4-[5-(trifluoromethyl)tetrazo 1-2-yl]phenyl]methyl]-2,3-dihydro-1λ^6,5-benzothiazepin-4-one]: the “Emax IL2 (% activation)” value with primary human T-cells [1] came to 554 % activation. Also, the EC50 with primary human T-cells [1] (Homo sapiens, T-cell) was determined as 2110 nM. Also, in the test with primary human T-cells [2], the “Emax proliferation (% activation)” value amounted to 141 % activation and the EC50 came to 1710 nM.
For `COC(=O)N1CC2CC(c3nnc(-c4ccc5c(c4)N(Cc4ccc(-c6noc(C(F)(F)F)n6)cc4)C(=O)[C@@H](N)CS5(=O)=O)o3)(C2)C1` [Example 158, methyl 1-[5-[(3R)-3-amino-1,1,4-trioxo-5-[[4-[5-(trifluoromethyl)-1,2,4-oxadiazol-3-yl]phenyl]methyl]-2,3-dihydro-1λ^6,5-benzothiazepin-7-yl]-1,3,4-oxadiazol-2-yl]-3-azabicyclo[3.1.1]heptane-3-carboxylate], in the test on primary human T-cells [1], the EC50 came to 1340 nM and the “Emax IL2 (% activation)” value worked out at 345 % activation. For the same compound, in the test on primary human T-cells [2], the “Emax proliferation (% activation)” value came to 150 % activation and the EC50 is 304 nM.
With `N[C@H]1CS(=O)(=O)c2ccc(-c3nnc(N4CCC(F)(F)CC4)o3)cc2N(Cc2ccc(-c3ccc(C(F)(F)F)cn3)cc2)C1=O` [Example 160], the “Emax IL2 (% activation)” value with primary human T-cells [1] is on record as 55 % activation. For the same compound, the EC50 in the test on primary human T-cells [1] (Homo sapiens, T-cell) was found to be 6430 nM. In addition, in the test on primary human T-cells [2], the “Emax proliferation (% activation)” value is on record as 150 % activation and the EC50 came to 1300 nM.
The matching figures for `N[C@H]1CS(=O)(=O)c2ccc(-c3nnc(N4CCC(F)(F)CC4)o3)cc2N(Cc2ccc(-n3ccc(C(F)(F)F)n3)cc2)C1=O` [Example 162, (3R)-3-amino-7-[5-(4,4-difluoro-1-piperidyl)-1,3,4-oxadiazol-2-yl]-1,1-dioxo-5-[[4-[3-(trifluoromethyl)pyrazol-1-yl]phenyl]methyl]-2,3-dihydro-1λ^6,5-benzothiazepin-4-one]: 185 % activation, 1410 nM, 186 % activation and 563 nM.
As to `CC(C)(c1nnc(-c2ccc3c(c2)N(Cc2ccc(-c4ccc(OC(F)(F)F)cn4)cc2)C(=O)[C@@H](N)CS3(=O)=O)o1)C(F)(F)F` [Example 165, (3R)-3-amino-1,1-dioxo-7-[5-(2,2,2-trifluoro-1,1-dimethyl-ethyl)-1,3,4-oxadiazol-2-yl]-5-[[4-[5-(trifluoromethoxy)-2-pyridyl]phenyl]methyl]-2,3-dihydro-1λ^6,5-benzothiazepin-4-one], the “Emax IL2 (% activation)” value in the test with primary human T-cells [1] came to 123 % activation. In addition, in the test on primary human T-cells [1] (Homo sapiens, T-cell), the EC50 was found to be 1330 nM. Also, in the test on primary human T-cells [2], the “Emax proliferation (% activation)” value came out at 139 % activation and the EC50 is 153 nM.
Regarding `N[C@H]1CS(=O)(=O)c2ccc(-c3nnc(C(F)C(F)(F)F)o3)cc2N(Cc2ccc(-c3noc(C4CC4)n3)cc2)C1=O` (stereo partly drawn) [Example 168, (3R)-3-amino-5-[[4-(5-cyclopropyl-1,2,4-oxadiazol-3-yl)phenyl]methyl]-1,1-dioxo-7-[5-(1,2,2,2-tetrafluoroethyl)-1,3,4-oxadiazol-2-yl]-2,3-dihydro-1λ^6,5-benzothiazepin-4-one], in the test on primary human T-cells [1], the “Emax IL2 (% activation)” value turned out to be 67 % activation. Moreover, in the test on primary human T-cells [1] (Homo sapiens, T-cell), the EC50 was found to be 4870 nM. Besides, in the test on primary human T-cells [2], the “Emax proliferation (% activation)” value was found to be 62 % activation and the EC50 turned out to be 2620 nM.
The matching figures for `CC(O)(c1nnc(-c2ccc3c(c2)N(Cc2ccc(-c4noc(C5CC5)n4)cc2)C(=O)[C@@H](N)CS3(=O)=O)o1)C(F)(F)F` (some centres unmarked) [Example 170]: 79 % activation, 8550 nM, 89 % activation and 1010 nM.
Turning to `N[C@H]1CS(=O)(=O)c2ccc(-c3nnc(C(N)(C4CC4)C(F)(F)F)o3)cc2N(Cc2ccc(-c3noc(C4CC4)n3)cc2)C1=O` (some centres unmarked) [Example 171], in the test on primary human T-cells [1], the “Emax IL2 (% activation)” value is 122 % activation. Moreover, the EC50 in the test on primary human T-cells [1] (Homo sapiens, T-cell) turned out to be 3780 nM; in the test with primary human T-cells [2], 1520 nM. Moreover, the “Emax proliferation (% activation)” value with primary human T-cells [2] worked out at 109 % activation.
